Experimental data from US9993478B2, “1-pyrazolyl-3-(4-((2-anilinopyrimidin-4-yl) oxy) napththalen-1-yl) ureas as P38 MAP knase inhibitors” (Respivert Ltd., priority 2011, dated 2018).

Test system: d-U937 cells
Test: Cell viability: MTT assay
Assay type: cell-based, human
Details: 1 μg/mL
Description: Differentiated U937 cells were pre-incubated with each test compound (final concentration 1 μg/mL or 10 μg/mL in 200 μL media indicated below) under two protocols: the first for 4 hr in 5% FCS RPMI1640 media and the second in 10% FCS RPMI1640 media for 24 h. The supernatant was replaced with new media (200 μL) and MTT stock solution (10 μL, 5 mg/mL) was added to each well. After incubation for 1 hr the media were removed, DMSO (200 μL) was added to each well and the plates were shaken lightly for 1 hr prior to reading the absorbance at 550 nm. The percentage loss of cell viability was calculated for each well relative to vehicle (0.5% DMSO) treatment. Consequently an apparent increase in cell viability for drug treatment relative to vehicle is tabulated as a negative percentage.

Compound	MTT Assay Cell viability at time point in d-U937 Cells 4 h	MTT Assay Cell viability at time point in d-U937 Cells 24 h
COc1ccc(Nc2nccc(Oc3ccc(NC(=O)Nc4cc(C(C)(C)C)nn4-c4ccc(C)cc4)c4ccccc34)n2)cc1 [Example 17, 1-(3-(tert-butyl)-1-(p-tolyl)-1H-pyrazol-5-yl)-3-(4-((2-((4-methoxyphenyl)amino)pyrimidin-4-yl)oxy)naphthalen-1-yl)urea]	−ve (−ve and +ve indicate the value is below and above respectively, the no significant effect threshold defined as 30% inhibition at 1 μg/mL at the time point indicated)	−ve (−ve and +ve indicate the value is below and above respectively, the no significant effect threshold defined as 30% inhibition at 1 μg/mL at the time point indicated)
COc1ccccc1Nc1nccc(Oc2ccc(NC(=O)Nc3cc(C(C)(C)C)nn3-c3ccc(C)cc3)c3ccccc23)n1 [Example 5, 1-(3-(tert-butyl)-1-(p-tolyl)-1H-pyrazol-5-yl)-3-(4-((2-((2-methoxyphenyl)amino)pyrimidin-4-yl)oxy)naphthalen-1-yl)urea]	−ve (−ve and +ve indicate the value is below and above respectively, the no significant effect threshold defined as 30% inhibition at 1 μg/mL at the time point indicated)	−ve (−ve and +ve indicate the value is below and above respectively, the no significant effect threshold defined as 30% inhibition at 1 μg/mL at the time point indicated)
COc1ccc(Nc2nccc(Oc3ccc(NC(=O)Nc4cc(C(C)(C)C)nn4-c4ccc(C)cc4)c4ccccc34)n2)cc1OC [Example 27, 1-(3-(tert-butyl)-1-(p-tolyl)-1H-pyrazol-5-yl)-3-(4-((2-((3,4-dimethoxyphenyl)amino)pyrimidin-4-yl)oxy)naphthalen-1-yl)urea]	+ve (−ve and +ve indicate the value is below and above respectively, the no significant effect threshold defined as 30% inhibition at 1 μg/mL at the time point indicated)	−ve (−ve and +ve indicate the value is below and above respectively, the no significant effect threshold defined as 30% inhibition at 1 μg/mL at the time point indicated)
Cc1ccc(-n2nc(C(C)(C)C)cc2NC(=O)Nc2ccc(Oc3ccnc(Nc4ccc(C)c(O)c4)n3)c3ccccc23)cc1 [Example 26, 1-(3-(tert-butyl)-1-(p-tolyl)-1H-pyrazol-5-yl)-3-(4-((2-((3-hydroxy-4-methylphenyl)amino)pyrimidin-4-yl)oxy)naphthalen-1-yl)urea]	−ve (−ve and +ve indicate the value is below and above respectively, the no significant effect threshold defined as 30% inhibition at 1 μg/mL at the time point indicated)	−ve (−ve and +ve indicate the value is below and above respectively, the no significant effect threshold defined as 30% inhibition at 1 μg/mL at the time point indicated)
Cc1ccc(-n2nc(C(C)(C)C)cc2NC(=O)Nc2ccc(Oc3ccnc(Nc4ccccc4C)n3)c3ccccc23)cc1 [Example 21, 1-(3-(tert-butyl)-1-(p-tolyl)-1H-pyrazol-5-yl)-3-(4-((2-(o-tolylamino)pyrimidin-4-yl)oxy)naphthalen-1-yl)urea]	−ve (−ve and +ve indicate the value is below and above respectively, the no significant effect threshold defined as 30% inhibition at 1 μg/mL at the time point indicated)	−ve (−ve and +ve indicate the value is below and above respectively, the no significant effect threshold defined as 30% inhibition at 1 μg/mL at the time point indicated)
COc1ccc(Nc2nccc(Oc3ccc(NC(=O)Nc4cc(C(C)(C)C)nn4-c4ccc(C)cc4)c4ccccc34)n2)cc1Cl [Example 28, 1-(3-(tert-butyl)-1-(p-tolyl)-1H-pyrazol-5-yl)-3-(4-((2-((3-chloro-4-methoxyphenyl)amino)pyrimidin-4-yl)oxy)naphthalen-1-yl)urea]	−ve (−ve and +ve indicate the value is below and above respectively, the no significant effect threshold defined as 30% inhibition at 1 μg/mL at the time point indicated)	−ve (−ve and +ve indicate the value is below and above respectively, the no significant effect threshold defined as 30% inhibition at 1 μg/mL at the time point indicated)
Cc1ccc(-n2nc(C(C)(C)C)cc2NC(=O)Nc2ccc(Oc3ccnc(Nc4ccc(O)cc4C)n3)c3ccccc23)cc1 [Example 24, 1-(3-(tert-butyl)-1-(p-tolyl)-1H-pyrazol-5-yl)-3-(4-((2-((4-hydroxy-2-methylphenyl)amino)pyrimidin-4-yl)oxy)naphthalen-1-yl)urea]	−ve (−ve and +ve indicate the value is below and above respectively, the no significant effect threshold defined as 30% inhibition at 1 μg/mL at the time point indicated)	−ve (−ve and +ve indicate the value is below and above respectively, the no significant effect threshold defined as 30% inhibition at 1 μg/mL at the time point indicated)
Cc1ccc(-n2nc(C(C)(C)C)cc2NC(=O)Nc2ccc(Oc3ccnc(Nc4ccccc4Cl)n3)c3ccccc23)cc1 [Example 19, 1-(3-(tert-butyl)-1-(p-tolyl)-1H-pyrazol-5-yl)-3-(4-((2-((2-chlorophenyl)amino)pyrimidin-4-yl)oxy)naphthalen-1-yl)urea]	−ve (−ve and +ve indicate the value is below and above respectively, the no significant effect threshold defined as 30% inhibition at 1 μg/mL at the time point indicated)	−ve (−ve and +ve indicate the value is below and above respectively, the no significant effect threshold defined as 30% inhibition at 1 μg/mL at the time point indicated)
Cc1ccc(-n2nc(C(C)(C)C)cc2NC(=O)Nc2ccc(Oc3ccnc(Nc4cccc(F)c4)n3)c3ccccc23)cc1 [Example 15, 1-(3-(tert-butyl)-1-(p-tolyl)-1H-pyrazol-5-yl)-3-(4-((2-((3-fluorophenyl)amino)pyrimidin-4-yl)oxy)naphthalen-1-yl)urea]	−ve (−ve and +ve indicate the value is below and above respectively, the no significant effect threshold defined as 30% inhibition at 1 μg/mL at the time point indicated)	−ve (−ve and +ve indicate the value is below and above respectively, the no significant effect threshold defined as 30% inhibition at 1 μg/mL at the time point indicated)
COc1cc(Nc2nccc(Oc3ccc(NC(=O)Nc4cc(C(C)(C)C)nn4-c4ccc(C)cc4)c4ccccc34)n2)ccc1O [Example 25, 1-(3-(tert-butyl)-1-(p-tolyl)-1H-pyrazol-5-yl)-3-(4-((2-((4-hydroxy-3-methoxyphenyl)amino)pyrimidin-4-yl)oxy)naphthalen-1-yl)urea]	−ve (−ve and +ve indicate the value is below and above respectively, the no significant effect threshold defined as 30% inhibition at 1 μg/mL at the time point indicated)	−ve (−ve and +ve indicate the value is below and above respectively, the no significant effect threshold defined as 30% inhibition at 1 μg/mL at the time point indicated)
Cc1ccc(-n2nc(C(C)(C)C)cc2NC(=O)Nc2ccc(Oc3ccnc(Nc4ccc(Cl)cc4)n3)c3ccccc23)cc1 [Example 16, 1-(3-(tert-butyl)-1-(p-tolyl)-1H-pyrazol-5-yl)-3-(4-((2-((4-chlorophenyl)amino)pyrimidin-4-yl)oxy)naphthalen-1-yl)urea]	−ve (−ve and +ve indicate the value is below and above respectively, the no significant effect threshold defined as 30% inhibition at 1 μg/mL at the time point indicated)	−ve (−ve and +ve indicate the value is below and above respectively, the no significant effect threshold defined as 30% inhibition at 1 μg/mL at the time point indicated)
Cc1ccc(-n2nc(C(C)(C)C)cc2NC(=O)Nc2ccc(Oc3ccnc(Nc4ccc(F)cc4)n3)c3ccccc23)cc1 [Example 23, 1-(3-(tert-butyl)-1-(p-tolyl)-1H-pyrazol-5-yl)-3-(4-((2-((4-fluorophenyl)amino)pyrimidin-4-yl)oxy)naphthalen-1-yl)urea]	−ve (−ve and +ve indicate the value is below and above respectively, the no significant effect threshold defined as 30% inhibition at 1 μg/mL at the time point indicated)	−ve (−ve and +ve indicate the value is below and above respectively, the no significant effect threshold defined as 30% inhibition at 1 μg/mL at the time point indicated)
Cc1ccc(-n2nc(C(C)(C)C)cc2NC(=O)Nc2ccc(Oc3ccnc(Nc4ccc(O)c(F)c4)n3)c3ccccc23)cc1 [Example 29, 1-(3-(tert-butyl)-1-(p-tolyl)-1H-pyrazol-5-yl)-3-(4-((2-((3-fluoro-4-hydroxyphenyl)amino)pyrimidin-4-yl)oxy)naphthalen-1-yl)urea]	+ve (−ve and +ve indicate the value is below and above respectively, the no significant effect threshold defined as 30% inhibition at 1 μg/mL at the time point indicated)	−ve (−ve and +ve indicate the value is below and above respectively, the no significant effect threshold defined as 30% inhibition at 1 μg/mL at the time point indicated)
Cc1ccc(-n2nc(C(C)(C)C)cc2NC(=O)Nc2ccc(Oc3ccnc(Nc4ccc(Cl)cc4C)n3)c3ccccc23)cc1 [Example 18, 1-(3-(tert-butyl)-1-(p-tolyl)-1H-pyrazol-5-yl)-3-(4-((2-((4-chloro-2-methylphenyl)amino)pyrimidin-4-yl)oxy)naphthalen-1-yl)urea]	−ve (−ve and +ve indicate the value is below and above respectively, the no significant effect threshold defined as 30% inhibition at 1 μg/mL at the time point indicated)	−ve (−ve and +ve indicate the value is below and above respectively, the no significant effect threshold defined as 30% inhibition at 1 μg/mL at the time point indicated)
